Values quoted from earlier work in article PMC11089243, “The first selective VAP-1 inhibitor in China, TT-01025-CL: safety, tolerability, pharmacokinetics, and pharmacodynamics of single- and multiple-ascending doses” (Frontiers in Pharmacology, 2024).

Experiments:
[1] = tested on: monoamine oxidase-B in the brain; design: method as in NASH, 2022; conditions: NASH patients; inhibition of monoamine oxidase-B in the brain; ref NASH, 2022
[2] = design: method as in NASH, 2022; conditions: ref NASH, 2022

**Q.** Which “finding of phase I study leading to suspension of development” value [1] does the source give for `CC(C)(C)NC(=O)c1ccc(OC/C(=C/F)CN)cc1.Cl` [BI 1467335] here?
**A.** risk of drug interactions

**Q.** And the “brain penetration (in words)” value [2]?
**A.** high brain penetration
